Where two headings read alike, the source gives them in different places.
Legend:
Format in all cases: cell-based
[1] = tested on: Wnt signaling pathway (Top-Flash reporter gene); assay: Top-Flash Wnt reporter gene assay in HEK293T cells with Wnt3a conditioned medium; details: Homo sapiens, HEK-293T, 6 h, 6 h
Procedure: HEK293T cells were cultured in DMEM containing 10% fetal bovine serum (Invitrogen) at 37° C., 5% CO2. The cells were passaged every other day. The density was retained at 70˜80% during passage. L cell line (CRL-2647, purchased from the gene bank of ATCC, the US) and the control cell line (CRL-2648, purchased from ATCC, US), which stably secreted mouse Wnt3a protein, were cultured in DMEM containing 50 ug/ml G418 and 10% fetal bovine serum, at 37° C., 5% CO2. When the cells grew to a density of about 70%, the medium was replaced with DMEM containing 10% fetal bovine serum. After continuous culture for 4 days, the culture was collected and centrifuged, and the supernatant was kept so that the Wnt conditioned medium was obtained. After titration assay, the conditioned medium was quick-frozen in liquid nitrogen, and placed at −80° C. for long-term storage, so that the titer was kept unchanged.
The cells were seeded to a 48-well plate at a density of […] cells per well, and transfected 20 h later. The reagents for plasmid transfection were calculated based on the amount in each well of the 48-well plate as following: the total amount of plasmid was 125 ng/well; the plasmid was first added to a serum-free medium (25 μL/well) and mixed well; PLUS reagent (Invitrogen) was then added in an amount of 0.5 μL/well and mixed well, then stood for 15 min; Lipofectamine (Invitrogen) liposome was added in an amount of 0.5 μL/well to serum-free DMEM medium (25 μL/well), and then mixed with the solution containing the plasmid and the PLUS, and stood for 15 min. The cells were cultured in serum-free DMEM medium (100 μL/well), and the final mixture of plasmid, PLUS and Lipofectamine were added to the cells. After incubation for 3 h, the transfection was stopped by the medium containing 10% fetal bovine serum (200 μL/well).
The HEK293T cells used for activity assay of the report gene were transfected by the method as shown in 2). Activity assay of Wnt reporter gene: the amount of plasmid for transfection was 5 ng/well for TOP-flash and 5 ng/well for GFP plasmid as internal standard, with lacZ added to reach a total amount of 125 ng/well. […] After treating for 6 h, Boehringer Mannheim Luci-ferase Assay Kit was used to lyse cells (200 μL/well). 50 μL from each well was pipetted into a 96-well plate. The indensity of GFP protein in the cell lysate was measured by fluorimeter FL600 (BIO-TEK Inc. Winooski, Vt.), and taken as internal standard for cell transfection efficiency. 10 μL substrate of luciferase was then added to each well, and the activity of luciferase was measured by Micro Lumate Plus (Perkin Elmer Inc. Wellesley, Mass.) luminometer. Finally, GFP indensity was used as internal standard to calibrate the activity of luciferase, i.e. the activity of Wnt reporter gene.
Calculation of IC50 (taking the calculation of IC50 of the Wnt signaling pathway for example): background (the activity as measured in the groups treated with a conditioned medium containing DMSO only) was subtracted from the reporter gene activity as measured in the groups treated by Wnt3a conditioned medium with or without the compound to be tested at different concentrations; and the obtained value was defined as the activity of the reporter gene induced by Wnt or the residual activity of the reporter gene after adding the compound to be tested. The residual activity was normalized by the activity induced by Wnt to get the relative residual activity. Then combine with the concentrations of the compound to be tested to plot a linear graph, and a dose-effect curve was fitted based on 4-parameter logistic fit. IC50 of the Wnt signaling pathway is determined as the concentration at which the relative residual activity is 0.5.

[2] = tested on: SW-480 (human colon cancer cells); assay: MTT inhibition of tumor cell growth, SW-480; details: Homo sapiens
Procedure: (§1) 1. Inoculating cells: the culture medium DMEM or RMPI1640 containing 10% fetal bovine serum was used to prepare a single cell suspension, and the cell suspension was inoculated to a 96-well plate at 5000-10000 cells per well (100 μl for each well); Adherent cells were inoculated and cultured for 12 h in advance. HL-60 (human promyelocytic leukemia cells), SMMC-7721 (human hepatoma cells), A-549 (Human lung adenocarcinoma cells), MCF-7 (human breast cancer cells), SW-480 (human colon cancer cells) were purchased from the Cell Bank of the Chinese Academy of Sciences, Shanghai.
(§2) 2. The solution of the compound to be tested (40 μM for primary screening; 5 concentrations were set for gradient re-screening for the compounds which achieve about 50% inhibition of tumor cell growth at 40 μM) was added, the final volume of each well was 200 μl, and triplicate wells were set for each test.
(§3) 3. Coloration: After culturing at 37° C. for 48 h, MTT solution (20 μl) was added to each well. After incubation for another 4 h, the culture was stopped. The supernatant in each well was pipetted and discarded, and 200 μl SDS solution (10%) was added to each well. Incubation was performed overnight (at 37° C.), to completely dissolve the crystal.
(§4) 4. Colorimetric assay: ELISA Reader (Bio-Rad 680) was used to obtain the light absorption for each well at a wavelength of 595 nm, the results were recorded. A cell growth curve was plotted with the concentration as abscissa and the cell survival percentage as ordinate. The two-point method (Reed and Muench method) was used to calculate the IC50 of the compound.

[3] = tested on: SMMC-7721 (human hepatoma cells); assay: MTT inhibition of tumor cell growth, SMMC-7721; details: Homo sapiens
Procedure: as §1, §2, §3, §4

[4] = tested on: MCF-7 (human breast cancer cells); assay: MTT inhibition of tumor cell growth, MCF-7; details: Homo sapiens
Procedure: as §1, §2, §3, §4

[5] = tested on: A-549 (Human lung adenocarcinoma cells); assay: MTT inhibition of tumor cell growth, A-549; details: Homo sapiens
Procedure: as §1, §2, §3, §4

[6] = tested on: HL-60 (human promyelocytic leukemia cells); assay: MTT inhibition of tumor cell growth, HL-60; details: Homo sapiens
Procedure: as §1, §2, §3, §4

[7] = Table 9, HEK293T, Wnt3a conditioned medium, read-out: IC50(μM), inhibitory activity on the Wnt signaling pathway
[8] = SW480, 48 h, Table 2, derivatives having potential Michael reaction acceptor, read-out: IC50 SW-480
[9] = SMMC-7721, 48 h, Table 2, derivatives having potential Michael reaction acceptor
[10] = MCF7, 48 h, Table 2, derivatives having potential Michael reaction acceptor
[11] = A549, 48 h, Table 2, derivatives having potential Michael reaction acceptor
[12] = HL-60, 48 h, Table 2, derivatives having potential Michael reaction acceptor
[13] = Table 8, HEK293T, Wnt3a conditioned medium, read-out: IC50 (μM), inhibitory activity on the Wnt signaling pathway
[14] = SW480, 48 h, Table 3, single Michael reaction acceptor, modified lactonic ring, read-out: IC50 SW-480
[15] = SMMC-7721, 48 h, Table 3, single Michael reaction acceptor, modified lactonic ring
[16] = MCF7, 48 h, Table 3, single Michael reaction acceptor, modified lactonic ring
[17] = A549, 48 h, Table 3, single Michael reaction acceptor, modified lactonic ring
[18] = HL-60, 48 h, Table 3, single Michael reaction acceptor, modified lactonic ring
[19] = read-out: IC50 (μM), inhibitory activity on the Wnt signaling pathway
[20] = SW480, 48 h, Table 5, derivatives having double Michael reaction acceptor, read-out: IC50 SW-480
[21] = SW480, 48 h, Table 6, double Michael reaction acceptor derivatives, read-out: IC50 SW-480, derivatives having double Michael reaction acceptor
[22] = SMMC-7721, 48 h, Table 5, derivatives having double Michael reaction acceptor
[23] = MCF7, 48 h, Table 5, derivatives having double Michael reaction acceptor
[24] = A549, 48 h, Table 5, derivatives having double Michael reaction acceptor
[25] = HL-60, 48 h, Table 5, derivatives having double Michael reaction acceptor

C=C1C(=O)C23CC[C@H]1CC2[C@]1(COC(C)=O)CCC[C@@](C)(COC(C)=O)C1[C@H](CN1CCOCC1)C3=O (some centres unmarked) [Compound 50]
IC50 [1, 7]: 56 ± 0.92 µM
IC50 [2, 8]: 6.57 µM
IC50 [3, 9]: 10.8 µM
IC50 [4, 10]: 4.23 µM
IC50 [5, 11]: 4.69 µM
IC50 [6, 12]: 6.3 µM

C=C1C(=O)C23CC[C@H]1CC2[C@@]12CCC[C@@]4(C)CO[C@@H]1O[C@@H]3CC42 (some centres unmarked) [Compound 36]
IC50 [1, 13]: 18.1 ± 2.67 µM
IC50 [2, 14]: 24.6 µM
IC50 [3, 15]: 10.9 µM
IC50 [4, 16]: 18.5 µM
IC50 [5, 17]: 13.7 µM
IC50 [6, 18]: 17 µM

C=C1C(=O)[C@]23CC[C@H]1CC2[C@@]12CCC[C@@](C)(CN(CCO)C1)C2C[C@H]3O (some centres unmarked) [Compound 88]
IC50 [1, 19]: > 60 µM
IC50 ([2]; SW480, Table 7 (first), alkaloid derivatives, 48 h, read-out: IC50 SW-480): 14.4 µM
IC50 ([3]; SMMC-7721, Table 7 (first), alkaloid derivatives, 48 h): 11.2 µM
IC50 ([4]; MCF7, Table 7 (first), alkaloid derivatives, 48 h): 16.6 µM
IC50 ([5]; A549, Table 7 (first), alkaloid derivatives, 48 h): 9.92 µM
IC50 ([6]; HL-60, Table 7 (first), alkaloid derivatives, 48 h): 7.95 µM

C=C1C(=O)[C@@]23CC[C@@H](CC2[C@@]24CCC[C@@](C)(COC2)C14)C(=C)C3=O (some centres unmarked) [Compound 31]
IC50 [1, 7]: 7.1 ± 0.7 µM
IC50 [2, 8]: 5.43 µM
IC50 [2, 20]: 0.62 µM
IC50 [2, 21]: 0.45 µM
IC50 [3, 9]: 4.44 µM
IC50 [3, 22]: 1.79 µM
IC50 [4, 10]: 8.86 µM
IC50 [4, 23]: 1.71 µM
IC50 [5, 11]: 6.11 µM
IC50 [5, 24]: 0.76 µM
IC50 [6, 12]: 3.6 µM
IC50 [6, 25]: 1.31 µM

C=C1C(=O)C23CC[C@H]1CC2[C@]1(C(=O)O)CCC[C@@](C)(CO)C1C[C@H]3O (some centres unmarked) [Compound 38]
IC50 [1, 13]: > 60 µM
IC50 [2, 14]: > 40 µM
IC50 [3, 15]: > 40 µM
IC50 [4, 16]: > 40 µM
IC50 [5, 17]: > 40 µM
IC50 [6, 18]: > 40 µM

C=C1C(=O)C23CC[C@H]1CC2[C@]1(COC(C)=O)CCC[C@@](C)(COC(C)=O)C1[C@H](COC(C)=O)C3=O (some centres unmarked) [Compound 52]
IC50 [1, 7]: > 60 µM
IC50 [2, 8]: 12.9 µM
IC50 [3, 9]: 15.4 µM
IC50 [4, 10]: 15.1 µM
IC50 [5, 11]: 11.1 µM
IC50 [6, 12]: 6.33 µM

C=C1C(=O)C23CC[C@@H](CC2[C@]2(COC(C)=O)CCC[C@@](C)(COC(C)=O)C12)C(=C)C3=O (some centres unmarked) [Compound 53]
IC50 [1, 7]: 7.3 µM
IC50 [2, 20]: 0.78 µM
IC50 [2, 21]: 0.78 µM
IC50 [3, 22]: 0.75 µM
IC50 [4, 23]: 0.65 µM
IC50 [5, 24]: 0.64 µM
IC50 [6, 25]: 1.21 µM

C=C1C(=O)C23CC[C@@H](CC2[C@@]24CCC[C@@](C)(COC2)C14)C(=C)[C@@H]3O (some centres unmarked) [Compound 33]
IC50 [1, 19]: 12.1 ± 1.25 µM

— patent US10112918B2, “15-oxospiramilactone derivatives, preparation method and uses thereof” (Kunming Institute of Botany, The Chinese Academy of Sciences, priority 2013, dated 2018)
